What all share (type): biochemical
One assay deals with T1, KRAS G12D (Homo sapiens, UniProt P01116, G12D).
T1 construct: Recombinant human RAS protein (2 nM)
As to the kind of experiment: HTRF nucleotide exchange assay (NEA), KRAS G12D. The following applies: recombinant human KRAS G12D aa1-188, 2 nM; lowest class = % inhibition at 10 μM. The procedure: (§1) The capacity of compounds to bind KRAS G12D, other KRAS mutants and wildtype RAS isoforms was quantified using a HTRF nucleotide exchange assay. Recombinant human RAS protein (2 nM; aa1-188 KRAS WT, HRAS WT, NRAS WT, or KRAS containing the containing the G12D, G13D or Q61H amino acid substitutions, or 4 nM KRAS; aa1-188 containing the G12V, G12C, G12A or G12S amino acid substitution, an N-terminal 6×His-tag and leader sequence), and 2 nM Europium-labeled anti-6×His antibody were mixed in assay buffer (10 mM HEPES pH7.3, 150 mM NaCl, 5 mM MgCl2, 0.05% BSA, 0.0025% NP-40 and 100 mM KF) with various concentrations of compound in a 384-well plate and a volume of 5 uL. After a 60-minute incubation at room temperature, 5 ul of 200 nM EDA-GTP-DY647P1 (diluted in assay buffer) was added to the plate. Following 30-minute incubation at room temperature, time-resolved fluorescence was measured on a PerkinElmer Envision plate reader. DMSO (0.3%) and unlabeled […] (1 μM) or equivalent tool compound were used to generate the Max and Min assay signals, respectively. Data was analysed using a four-parameter logistic model to calculate IC50 values, with at least two independent replicates were performed for each compound.
For orientation: Time-resolved FRET reads energy transfer from a long-lived donor to a nearby acceptor.

The next assay addresses T2, KRAS WT (Homo sapiens, UniProt P01116).
T2 construct: Recombinant human RAS protein (2 nM); aa1-188 KRAS WT
As to the kind of experiment: HTRF nucleotide exchange assay (NEA), KRAS WT. The procedure: as §1

For another assay, the target named is T3, KRAS G12C (Homo sapiens, UniProt P01116, G12C).
T3 construct: 4 nM KRAS; aa1-188 containing the G12V, G12C, G12A or G12S amino acid substitution
Briefly: HTRF nucleotide exchange assay (NEA), KRAS G12C. The method, then: as §1

The next assay addresses T4, KRAS G12V (Homo sapiens, UniProt P01116, G12V).
T4 construct: 4 nM KRAS; aa1-188 containing the G12V, G12C, G12A or G12S amino acid substitution
Briefly: HTRF nucleotide exchange assay (NEA), KRAS G12V. The method, then:
as §1

The mark [1] stands for this setting: recombinant human KRAS WT aa1-188, 2 nM, lowest class = % inhibition at 10 μM.

Like-named read-outs stand apart in the source and are kept apart here. Bounds are passed on as bounds.

T1 sequence (P01116 1-188 isoform P01116-2 G12D): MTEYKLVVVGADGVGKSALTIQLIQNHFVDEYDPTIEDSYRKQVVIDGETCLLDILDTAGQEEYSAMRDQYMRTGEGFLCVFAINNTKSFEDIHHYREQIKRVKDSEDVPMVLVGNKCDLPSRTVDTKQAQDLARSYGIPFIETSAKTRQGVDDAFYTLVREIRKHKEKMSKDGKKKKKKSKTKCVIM
T3 sequence (P01116 1-188 isoform P01116-2 G12C): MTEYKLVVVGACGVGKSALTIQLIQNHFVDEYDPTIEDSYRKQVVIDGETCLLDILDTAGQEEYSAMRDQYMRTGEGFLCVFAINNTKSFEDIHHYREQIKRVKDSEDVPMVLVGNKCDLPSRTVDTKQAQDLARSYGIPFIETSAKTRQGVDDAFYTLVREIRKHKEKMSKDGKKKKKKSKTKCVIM
T2 sequence (P01116 1-188 isoform P01116-2): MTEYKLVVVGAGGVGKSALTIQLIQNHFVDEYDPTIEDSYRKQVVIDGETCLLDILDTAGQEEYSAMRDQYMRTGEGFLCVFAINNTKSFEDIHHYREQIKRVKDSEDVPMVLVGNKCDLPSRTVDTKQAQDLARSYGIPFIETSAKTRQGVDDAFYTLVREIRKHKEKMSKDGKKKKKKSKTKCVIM
T4 sequence (P01116 1-188 isoform P01116-2 G12V): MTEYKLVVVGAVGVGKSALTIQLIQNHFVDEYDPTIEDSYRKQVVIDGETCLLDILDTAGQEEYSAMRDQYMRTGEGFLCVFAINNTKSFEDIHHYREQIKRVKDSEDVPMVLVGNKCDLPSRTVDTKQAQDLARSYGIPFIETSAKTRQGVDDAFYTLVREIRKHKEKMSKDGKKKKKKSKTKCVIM

By IC50 is commonly meant the point on the concentration scale where inhibition reaches its midpoint. Consider `C#Cc1c(F)ccc2cc(O)cc(-c3ncc4c(N5CCC(O)CC5)nc(OC[C@@]56CCCN5C[C@H](F)C6)nc4c3F)c12` (relative stereo) [Example 86, 1-[7-(8-ethynyl-7-fluoro-3-hydroxy-1-naphthyl)-8-fluoro-2-[[trans-2-fluoro-1,2,3,5,6,7-hexahydropyrrolizin-8-yl]methoxy]pyrido[4,3-d]pyrimidin-4-yl]piperidin-4-ol], for which the IC50 at KRAS G12D, at KRAS WT, on KRAS G12C and against KRAS G12V was not above 10 nM in each case.

For the compound `Oc1cc(-c2ncc3c(N4CCC5(CCNC5)CC4)nc(OCC45CCCN4CCC5)nc3c2F)c2ccccc2c1` [Example 2, 4-[4-(2,8-diazaspiro[4.5]decan-8-yl)-8-fluoro-2-(1,2,3,5,6,7-hexahydropyrrolizin-8-ylmethoxy)pyrido[4,3-d]pyrimidin-7-yl]naphthalen-2-ol], the IC50 on KRAS G12D, against KRAS WT and at KRAS G12C was 100 to 10000 nM each time.

With `Oc1cc(-c2ncc3c(N4CCOCC4)nc(OCC45CCCN4CCC5)nc3c2F)c2ccccc2c1` [Example 5, 4-[8-fluoro-2-(1,2,3,5,6,7-hexahydropyrrolizin-8-ylmethoxy)-4-(morpholin-4-yl)pyrido[4,3-d]pyrimidin-7-yl]naphthalen-2-ol], the half-inhibitory concentration (IC50) on KRAS G12D, on KRAS WT, at KRAS G12C and against KRAS G12V was 100 to 10000 nM in each case.

For `CC1COCCCN1c1nc(OCC23CCCN2CCC3)nc2c(F)c(-c3cc(O)cc4ccccc34)ncc12` (stereo not shown) [Example 18, 4-[8-fluoro-2-(1,2,3,5,6,7-hexahydropyrrolizin-8-ylmethoxy)-4-(3-methyl-1,4-oxazepan-4-yl)pyrido[4,3-d]pyrimidin-7-yl]naphthalen-2-ol], the IC50 at KRAS G12D, at KRAS WT and against KRAS G12C was 10 to 100 nM throughout.

For `O=S1(=O)CCCN(c2nc(OCC34CCCN3CCC4)nc3c(F)c(-c4cc(O)cc5ccccc45)ncc23)CC1` [Example 24, 4-[4-(1,1-dioxo-1,4-thiazepan-4-yl)-8-fluoro-2-(1,2,3,5,6,7-hexahydropyrrolizin-8-ylmethoxy)pyrido [4,3-d]pyrimidin-7-yl]naphthalen-2-ol], the concentration for half-maximal inhibition (IC50) is 100 to 10000 nM on KRAS G12D, 100 to 10000 nM at KRAS WT and 10 to 100 nM against KRAS G12C.

`COC(=O)CCNc1nc(OCC23CCCN2CCC3)nc2c(F)c(-c3cc(O)cc4ccccc34)ncc12` [Example 25]: the IC50 at KRAS G12D, against KRAS WT and on KRAS G12C was 100 to 10000 nM each time.

Turning to `CSCCCNc1nc(OCC23CCCN2CCC3)nc2c(F)c(-c3cc(O)cc4ccccc34)ncc12` [Example 26, 4-[8-fluoro-2-(1,2,3,5,6,7-hexahydropyrrolizin-8-ylmethoxy)-4-(3-methylsulfanylpropylamino)pyrido[4,3-d]pyrimidin-7-yl]naphthalen-2-ol], the IC50 at KRAS G12D, at KRAS WT and against KRAS G12C was 100 to 10000 nM each time.

For the compound `COCCCN(C)c1nc(OCC23CCCN2CCC3)nc2c(F)c(-c3cc(O)cc4ccccc34)ncc12` [Example 28, 4-[8-fluoro-2-(1,2,3,5,6,7-hexahydropyrrolizin-8-ylmethoxy)-4-[3-methoxypropyl(methyl)amino]pyrido[4,3-d]pyrimidin-7-yl]naphthalen-2-ol], the IC50 at KRAS G12D, against KRAS WT and at KRAS G12C was 100 to 10000 nM each time.

With `Oc1cc(-c2ncc3c(N4CCc5[nH]ncc5C4)nc(OCC45CCCN4CCC5)nc3c2F)c2ccccc2c1` [Example 61, 4-[8-fluoro-2-(1,2,3,5,6,7-hexahydropyrrolizin-8-ylmethoxy)-4-(1,4,6,7-tetrahydropyrazolo [4,3-c]pyridin-5-yl)pyrido[4,3-d]pyrimidin-7-yl]naphthalen-2-ol], the half-inhibitory concentration (IC50) on KRAS G12D and against KRAS WT was 100 to 10000 nM in each case.

As to `Oc1cc(-c2ncc3c(N4CCc5cn[nH]c5C4)nc(OCC45CCCN4CCC5)nc3c2F)c2ccccc2c1` [Example 62, 4-[8-fluoro-2-(1,2,3,5,6,7-hexahydropyrrolizin-8-ylmethoxy)-4-(1,4,5,7-tetrahydropyrazolo [3,4-c]pyridin-6-yl)pyrido[4,3-d]pyrimidin-7-yl]naphthalen-2-ol], the IC50 at KRAS G12D and on KRAS WT was 100 to 10000 nM throughout.

`CC1(C#N)CCN(c2nc(OCC34CCCN3CCC4)nc3c(F)c(-c4cc(O)cc5ccccc45)ncc23)CC1` [Example 63, 1-[8-fluoro-2-(1,2,3,5,6,7-hexahydropyrrolizin-8-ylmethoxy)-7-(3-hydroxy-1-naphthyl)pyrido[4,3-d]pyrimidin-4-yl]-4-methyl-piperidine-4-carbonitrile]: the IC50 at KRAS G12D and against KRAS WT was 100 to 10000 nM each time.

Regarding `CC(=O)OCCCNc1nc(OCC23CCCN2CCC3)nc2c(F)c(-c3cc(O)cc4ccccc34)ncc12` [Example 64, 3-[[8-fluoro-2-(1,2,3,5,6,7-hexahydropyrrolizin-8-ylmethoxy)-7-(3-hydroxy-1-naphthyl)pyrido[4,3-d]pyrimidin-4-yl]amino]propyl acetate], the IC50 on KRAS G12D and against KRAS WT was 100 to 10000 nM in each case.

With `Oc1cc(-c2ncc3c(N4CC5CC4CC5O)nc(OCC45CCCN4CCC5)nc3c2F)c2ccccc2c1` (stereo not shown) [Example 66, 2-[8-fluoro-2-(1,2,3,5,6,7-hexahydropyrrolizin-8-ylmethoxy)-7-(3-hydroxy-1-naphthyl)pyrido[4,3-d]pyrimidin-4-yl]-2-azabicyclo[2.2.1] heptan-5-ol], the half-inhibitory concentration (IC50) at KRAS G12D and on KRAS WT was 100 to 10000 nM throughout.

On to `NS(=O)(=O)CCCNc1nc(OCC23CCCN2CCC3)nc2c(F)c(-c3cc(O)cc4ccccc34)ncc12` [Example 67], for which the IC50 at KRAS G12D and against KRAS WT was 100 to 10000 nM each time.

On to `CC1CN(c2nc(OCC34CCCN3CCC4)nc3c(F)c(-c4cc(O)cc5ccccc45)ncc23)CCC1O` (stereo not shown) [Example 68, 1-[8-fluoro-2-(1,2,3,5,6,7-hexahydropyrrolizin-8-ylmethoxy)-7-(3-hydroxy-1-naphthyl)pyrido[4,3-d]pyrimidin-4-yl]-3-methyl-piperidin-4-ol], for which the 50% inhibitory concentration (IC50) at KRAS G12D and against KRAS WT was 100 to 10000 nM each time.

As to `CC1CC(O)CCN1c1nc(OCC23CCCN2CCC3)nc2c(F)c(-c3cc(O)cc4ccccc34)ncc12` (stereo not shown) [Example 69, 1-[8-fluoro-2-(1,2,3,5,6,7-hexahydropyrrolizin-8-ylmethoxy)-7-(3-hydroxy-1-naphthyl)pyrido[4,3-d]pyrimidin-4-yl]-2-methyl-piperidin-4-ol], the IC50 fell in the range of 10 to 100 nM on KRAS G12D and 100 to 10000 nM against KRAS WT.

As for `Oc1cc(-c2ncc3c(N4CC5CC(C4)C5O)nc(OCC45CCCN4CCC5)nc3c2F)c2ccccc2c1` (stereo not shown) [Example 71, 3-[8-fluoro-2-(1,2,3,5,6,7-hexahydropyrrolizin-8-ylmethoxy)-7-(3-hydroxy-1-naphthyl)pyrido[4,3-d]pyrimidin-4-yl]-3-azabicyclo[3.1.1] heptan-6-ol], the IC50 at KRAS G12D and on KRAS WT was 100 to 10000 nM in each case.

In the case of `Oc1cc(-c2ncc3c(N4CCC5CCC(C4)O5)nc(OCC45CCCN4CCC5)nc3c2F)c2ccccc2c1` (stereo not shown) [Example 80, 4-[8-fluoro-2-(1,2,3,5,6,7-hexahydropyrrolizin-8-ylmethoxy)-4-(9-oxa-3-azabicyclo[4.2.1]nonan-3-yl)pyrido [4,3-d]pyrimidin-7-yl]naphthalen-2-ol], the IC50 at KRAS G12D and against KRAS WT was 100 to 10000 nM in each case.

With `Fc1c(-c2cccc3[nH]ncc23)ncc2c(N3CCCOCC3)nc(OCC34CCCN3CCC4)nc12` [Example 92, 4-[8-fluoro-2-(1,2,3,5,6,7-hexahydropyrrolizin-8-ylmethoxy)-7-(1H-indazol-4-yl)pyrido[4,3-d]pyrimidin-4-yl]-1,4-oxazepane], the IC50 at KRAS G12D is 100 to 10000 nM; on KRAS WT (setting [1]), more than 10000 nM.

As to `Nc1nc2c(-c3ncc4c(N5CCCOCC5)nc(OCC56CCCN5CCC6)nc4c3F)cccc2s1` [Example 93, 4-[8-fluoro-2-(1,2,3,5,6,7-hexahydropyrrolizin-8-ylmethoxy)-4-(1,4-oxazepan-4-yl)pyrido[4,3-d]pyrimidin-7-yl]-1,3-benzothiazol-2-amine], the IC50 at KRAS G12D and on KRAS WT was 100 to 10000 nM in each case.

As for `Fc1c(-c2cccc3[nH]ncc23)ncc2c(N3CCCOCC3)nc(OC[C@@]34CCCN3C[C@H](F)C4)nc12` [Example 95, 4-[8-fluoro-7-(1H-indazol-4-yl)-2-[[trans-2-fluoro-1,2,3,5,6,7-hexahydropyrrolizin-8-yl]methoxy]pyrido[4,3-d]pyrimidin-4-yl]-1,4-oxazepane], the IC50 on KRAS G12D was 100 to 10000 nM; on KRAS WT (setting [1]) it was more than 10000 nM.

For the origin of these results see patent publication US20240279241A1, “PYRIDO[4,3-D]PYRIMIDINE COMPOUNDS CAPABLE OF INHIBITING KRAS MUTANT PROTEINS” (Redx Pharma PLC, priority 2021, published 2024).
